How the values were obtained:
Type in all cases: cell-based
human TLR8 = biological target: T1, human TLR8 (Homo sapiens, UniProt Q9NR97); assay: TLR8 inhibition reporter assay (HEK-Blue SEAP reporter, R848 stimulation); conditions: HEK-Blue cells overexpressing human TLR8, SEAP reporter, R848 15.9 μM, 22 hour incubation
T1 construct: host or cells: HEK-Blue cells
T1 sequence (Q9NR97 27-1041): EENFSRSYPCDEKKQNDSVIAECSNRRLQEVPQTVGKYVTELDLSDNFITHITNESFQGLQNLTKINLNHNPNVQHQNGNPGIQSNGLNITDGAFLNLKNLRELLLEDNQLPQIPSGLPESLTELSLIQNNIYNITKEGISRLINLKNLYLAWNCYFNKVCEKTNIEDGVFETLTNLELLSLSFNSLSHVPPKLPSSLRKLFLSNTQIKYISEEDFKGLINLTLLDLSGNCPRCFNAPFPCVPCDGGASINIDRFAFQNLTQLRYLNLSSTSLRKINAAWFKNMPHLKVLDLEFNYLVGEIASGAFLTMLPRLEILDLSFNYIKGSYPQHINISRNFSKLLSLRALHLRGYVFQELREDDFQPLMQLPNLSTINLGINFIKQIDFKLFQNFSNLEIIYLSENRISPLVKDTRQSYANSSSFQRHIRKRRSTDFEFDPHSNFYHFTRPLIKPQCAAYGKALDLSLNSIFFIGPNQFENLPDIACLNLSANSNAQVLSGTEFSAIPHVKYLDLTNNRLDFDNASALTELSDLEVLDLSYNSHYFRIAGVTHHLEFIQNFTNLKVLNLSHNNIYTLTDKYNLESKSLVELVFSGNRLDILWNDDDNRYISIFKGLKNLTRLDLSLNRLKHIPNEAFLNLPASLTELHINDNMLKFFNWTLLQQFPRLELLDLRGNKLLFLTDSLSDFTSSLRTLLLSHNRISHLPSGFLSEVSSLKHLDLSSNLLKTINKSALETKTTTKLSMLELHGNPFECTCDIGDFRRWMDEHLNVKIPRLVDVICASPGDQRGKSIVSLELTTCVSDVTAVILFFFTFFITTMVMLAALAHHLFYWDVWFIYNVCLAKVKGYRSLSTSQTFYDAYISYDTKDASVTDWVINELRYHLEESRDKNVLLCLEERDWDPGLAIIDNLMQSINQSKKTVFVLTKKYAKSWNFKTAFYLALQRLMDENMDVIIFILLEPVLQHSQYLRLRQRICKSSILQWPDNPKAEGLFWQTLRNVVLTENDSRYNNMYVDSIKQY
Method in brief: (§1)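 Compound treatment: 30 min, RT, 0.05 nM–50 μM final. Agonist: TLR7 gardiquimod 7.5 μM; TLR8 R848 15.9 μM; TLR9 ODN2006 5 nM. Incubation 22 h, 37 °C, 5% CO2. Readout SEAP, HEK-Blue Detection.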

human TLR9 = biological target: T2, human TLR9 (Homo sapiens, UniProt Q9NR96); assay: TLR9 inhibition reporter assay (HEK-Blue SEAP reporter, ODN2006 stimulation); conditions: HEK-Blue cells overexpressing human TLR9, SEAP reporter, ODN2006 5 nM, 22 hour incubation
T2 construct: host or cells: HEK-Blue cells
T2 sequence (Q9NR96 26-1032): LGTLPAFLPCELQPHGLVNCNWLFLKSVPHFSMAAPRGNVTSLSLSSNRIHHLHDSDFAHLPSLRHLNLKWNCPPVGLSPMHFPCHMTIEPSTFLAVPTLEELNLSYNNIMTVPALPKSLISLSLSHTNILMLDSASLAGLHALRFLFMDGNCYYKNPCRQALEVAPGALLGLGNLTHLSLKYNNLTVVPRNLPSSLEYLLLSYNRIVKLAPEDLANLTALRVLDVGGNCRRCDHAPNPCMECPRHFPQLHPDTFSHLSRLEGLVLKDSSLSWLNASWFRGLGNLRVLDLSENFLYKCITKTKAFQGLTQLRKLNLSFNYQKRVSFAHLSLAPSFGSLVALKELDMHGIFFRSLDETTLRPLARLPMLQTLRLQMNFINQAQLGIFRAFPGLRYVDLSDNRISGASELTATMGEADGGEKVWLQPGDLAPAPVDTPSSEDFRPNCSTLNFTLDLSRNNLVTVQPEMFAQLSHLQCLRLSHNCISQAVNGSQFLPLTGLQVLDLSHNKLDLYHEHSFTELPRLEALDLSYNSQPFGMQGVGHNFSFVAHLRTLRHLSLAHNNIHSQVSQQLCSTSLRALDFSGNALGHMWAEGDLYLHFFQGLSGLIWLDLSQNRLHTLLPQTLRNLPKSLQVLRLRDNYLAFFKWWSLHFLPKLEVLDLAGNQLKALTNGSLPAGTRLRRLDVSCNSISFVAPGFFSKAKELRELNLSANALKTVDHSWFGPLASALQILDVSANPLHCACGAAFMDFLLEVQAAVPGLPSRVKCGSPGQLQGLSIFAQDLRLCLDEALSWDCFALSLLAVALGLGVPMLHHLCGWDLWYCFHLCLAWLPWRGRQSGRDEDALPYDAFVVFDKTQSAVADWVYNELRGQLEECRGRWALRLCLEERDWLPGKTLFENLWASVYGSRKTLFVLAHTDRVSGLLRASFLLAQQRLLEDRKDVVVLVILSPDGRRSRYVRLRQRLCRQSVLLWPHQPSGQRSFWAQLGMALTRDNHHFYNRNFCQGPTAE
Method in brief: as §1

human TLR7 = biological target: T3, human TLR7 (Homo sapiens, UniProt Q9NYK1); assay: TLR7 inhibition reporter assay (HEK-Blue SEAP reporter, gardiquimod stimulation); conditions: HEK-Blue cells overexpressing human TLR7, SEAP reporter, gardiquimod 7.5 μM, 22 hour incubation
T3 construct: host or cells: HEK-Blue cells
T3 sequence (Q9NYK1 27-1049): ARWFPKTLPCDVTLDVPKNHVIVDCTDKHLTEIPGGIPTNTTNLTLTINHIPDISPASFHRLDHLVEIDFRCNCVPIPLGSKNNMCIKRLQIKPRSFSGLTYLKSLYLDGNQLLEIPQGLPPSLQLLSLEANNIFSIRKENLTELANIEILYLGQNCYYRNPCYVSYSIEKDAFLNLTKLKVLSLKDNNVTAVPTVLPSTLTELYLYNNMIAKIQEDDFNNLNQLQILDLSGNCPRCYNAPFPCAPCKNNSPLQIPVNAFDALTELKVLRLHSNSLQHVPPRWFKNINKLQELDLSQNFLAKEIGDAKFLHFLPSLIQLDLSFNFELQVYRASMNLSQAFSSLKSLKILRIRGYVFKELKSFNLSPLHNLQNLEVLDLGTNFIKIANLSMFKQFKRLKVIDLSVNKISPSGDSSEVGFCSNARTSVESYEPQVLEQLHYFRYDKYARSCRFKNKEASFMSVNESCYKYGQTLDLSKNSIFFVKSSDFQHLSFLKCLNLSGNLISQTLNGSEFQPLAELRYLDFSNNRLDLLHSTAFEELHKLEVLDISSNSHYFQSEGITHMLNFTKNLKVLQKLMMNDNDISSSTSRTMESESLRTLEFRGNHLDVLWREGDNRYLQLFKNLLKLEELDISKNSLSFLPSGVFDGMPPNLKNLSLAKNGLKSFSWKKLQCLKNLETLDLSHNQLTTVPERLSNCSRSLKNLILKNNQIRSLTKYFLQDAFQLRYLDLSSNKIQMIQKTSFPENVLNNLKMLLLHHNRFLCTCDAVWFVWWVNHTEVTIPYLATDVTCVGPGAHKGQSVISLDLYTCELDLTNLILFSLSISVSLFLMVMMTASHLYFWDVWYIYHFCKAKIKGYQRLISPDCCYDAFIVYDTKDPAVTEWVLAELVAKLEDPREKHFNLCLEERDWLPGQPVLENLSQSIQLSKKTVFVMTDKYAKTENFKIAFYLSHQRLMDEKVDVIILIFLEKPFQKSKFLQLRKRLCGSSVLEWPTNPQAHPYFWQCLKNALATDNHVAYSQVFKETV
Method in brief: as §1

| Structure (SMILES) | IC50 (human TLR8) | IC50 (human TLR9) | IC50 (human TLR7) |
| --- | --- | --- | --- |
| Cc1c(-c2[nH]c3ccc(C4CCNCC4)cc3c2C(C)C)ccc(=O)n1C [Example 6, 5-(3-isopropyl-5-(piperidin-4-yl)-1H-indol-2-yl)-1,6-dimethylpyridin-2(1H)-one] | 13.3 nM | 580 nM | 12.8 nM |
| CC(C)c1c(-c2cc(-c3cncnc3)c(=O)n(C)c2)[nH]c2ccc(C3CCN(CCS(C)(=O)=O)CC3)cc12 [Example 108, 5-(3-isopropyl-5-(1-(2-(methylsulfonyl)ethyl)piperidin-4-yl)-1H-indol-2-yl)-1-methyl-3-(pyrimidin-5-yl) pyridin-2(1H)-one] | 2 nM | 7540 nM | 32.8 nM |
| COC(=O)c1cc(-c2[nH]c3ccc(C4CCNCC4)cc3c2C(C)C)cn(C)c1=O [Example 37, methyl 5-(3-isopropyl-5-(piperidin-4-yl)-1H-indol-2-yl)-1-methyl-2-oxo-1,2-dihydropyridine-3-carboxylate] | 182 nM | 2430 nM | 458 nM |
| CC(C)c1c(-c2cc(-c3cncnc3)c(=O)n(C)c2)[nH]c2ccc(C3CCNCC3)cc12 [Example 54, 5-(3-isopropyl-5-(piperidin-4-yl)-1H-indol-2-yl)-1-methyl-3-(pyrimidin-5-yl)pyridin-2(1H)-one] | 5.9 nM | 753 nM | 23.4 nM |
| Cc1cc(-c2[nH]c3ccc(C4CCN(Cc5cc(Cl)ccc5F)CC4)cc3c2C(C)C)cn(C)c1=O [Example 80, 5-(5-(1-(5-chloro-2-fluorobenzyl)piperidin-4-yl)-3-isopropyl-1H-indol-2-yl)-1,3-dimethylpyridin-2(1H)-one] | 141 nM | 48800 nM | 128 nM |
| Cc1cc(-c2[nH]c3ccc(C4CCN(CC(=O)N(C)C)CC4)cc3c2C(C)C)nn(C)c1=O [Example 116, 2-(4-(2-(1,5-dimethyl-6-oxo-1,6-dihydropyridazin-3-yl)-3-isopropyl-1H-indol-5-yl)piperidin-1-yl)-N,N-dimethylacetamide] | 23.8 nM | 6100 nM | 29.6 nM |

The remaining lines, values ahead:

| IC50 (human TLR8) | IC50 (human TLR9) | IC50 (human TLR7) | Structure (SMILES) |
| --- | --- | --- | --- |
| 2.7 nM | 5030 nM | 24.7 nM | Cc1cc(-c2[nH]c3ccc(C4CCN(C5CCOCC5)CC4)cc3c2C(C)C)c(C)n(C)c1=O [Example 210, 5-(3-isopropyl-5-(1-(tetrahydro-2H-pyran-4-yl)piperidin-4-yl)-1H-indol-2-yl)-1,3,6-trimethylpyridin-2(1H)-one] |
| 113 nM | 10100 nM | 45.8 nM | Cc1cc(-c2[nH]c3ccc(C4CCN(CC(=O)N(C)C)CC4)cc3c2C(C)C)cn(CC(F)(F)F)c1=O [Example 165, 2-(4-(3-isopropyl-2-(5-methyl-6-oxo-1-(2,2,2-trifluoroethyl)-1,6-dihydropyridin-3-yl)-1H-indol-5-yl)piperidin-1-yl)-N,N-dimethylacetamide] |
| 4.4 nM | 11400 nM | 1.2 nM | Cc1cc(-c2[nH]c3ccc(C4CCN(CC(N)=O)CC4)cc3c2C(C)C)cn(C)c1=O [Example 150, 2-(4-(2-(1,5-dimethyl-6-oxo-1,6-dihydropyridin-3-yl)-3-isopropyl-1H-indol-5-yl)piperidin-1-yl)acetamide] |
| 10.7 nM | 7170 nM | 63.8 nM | Cc1c(-c2[nH]c3ccc(C4CCN(CC(=O)N(C)C)CC4)cc3c2C(C)C)cc(C#N)c(=O)n1C [Example 145, 2-(4-(2-(5-cyano-1,2-dimethyl-6-oxo-1,6-dihydropyridin-3-yl)-3-isopropyl-1H-indol-5-yl)piperidin-1-yl)-N,N-dimethylacetamide] |
| 3.2 nM | 7090 nM | 3.9 nM | Cc1cc(-c2[nH]c3ccc(C4CCN(C5CCOCC5)CC4)cc3c2C(C)C)cn(C)c1=O [Example 178, 5-(3-isopropyl-5-(1-(tetrahydro-2H-pyran-4-yl)piperidin-4-yl)-1H-indol-2-yl)-1,3-dimethylpyridin-2(1H)-one] |

Reference: patent US11447466B2, “Substituted indole compounds useful as inhibitors of TLR7/8/9” (BRISTOL-MYERS SQUIBB COMPANY, priority 2017, dated 2022)
